PubChem BioAssay AID1259407 (Chemical Carcinogenesis Research Information System (CCRIS), 2018)
The source made the active and inactive calls. The rule behind the calls is not given here.

Tested on: CCRIS mutagenicity, Ames/micronucleus/aberration tests
Assay: CCRIS mutagenicity studies

SMILES: CC1=NN(c2ccccc2)C(=O)C1
- mutagenic call (Test System: AMES SALMONELLA TYPHIMURIUM, Strain/Indicator: TA98, Metabolic Activation: HAMSTER, LIVER, S-9, AROCLOR 1254 (10%), Method: PREINCUBATION): inactive; negative
- mutagenic call (Test System: AMES SALMONELLA TYPHIMURIUM, Strain/Indicator: TA98, Metabolic Activation: NONE, Method: PREINCUBATION): inactive; negative
- mutagenic call (Test System: AMES SALMONELLA TYPHIMURIUM, Strain/Indicator: TA98, Metabolic Activation: RAT, LIVER, S-9, AROCLOR 1254 (10%), Method: PREINCUBATION): inactive; negative
- mutagenic call (Test System: AMES SALMONELLA TYPHIMURIUM, Strain/Indicator: TA100, Metabolic Activation: HAMSTER, LIVER, S-9, AROCLOR 1254 (10%), Method: PREINCUBATION): inactive; negative
- mutagenic call (Test System: AMES SALMONELLA TYPHIMURIUM, Strain/Indicator: TA100, Metabolic Activation: NONE, Method: PREINCUBATION): inactive; negative
- mutagenic call (Test System: AMES SALMONELLA TYPHIMURIUM, Strain/Indicator: TA100, Metabolic Activation: RAT, LIVER, S-9, AROCLOR 1254 (10%), Method: PREINCUBATION): inactive; negative
- mutagenic call (Test System: AMES SALMONELLA TYPHIMURIUM, Strain/Indicator: TA1535, Metabolic Activation: HAMSTER, LIVER, S-9, AROCLOR 1254 (10%), Method: PREINCUBATION): inactive; negative
- mutagenic call (Test System: AMES SALMONELLA TYPHIMURIUM, Strain/Indicator: TA1535, Metabolic Activation: NONE, Method: PREINCUBATION): inactive; negative
- mutagenic call (Test System: AMES SALMONELLA TYPHIMURIUM, Strain/Indicator: TA1535, Metabolic Activation: RAT, LIVER, S-9, AROCLOR 1254 (10%), Method: PREINCUBATION): inactive; negative
- mutagenic call (Test System: AMES SALMONELLA TYPHIMURIUM, Strain/Indicator: TA1537, Metabolic Activation: HAMSTER, LIVER, S-9, AROCLOR 1254 (10%), Method: PREINCUBATION): inactive; negative
- mutagenic call (Test System: AMES SALMONELLA TYPHIMURIUM, Strain/Indicator: TA1537, Metabolic Activation: NONE, Method: PREINCUBATION): inactive; negative
- mutagenic call (Test System: AMES SALMONELLA TYPHIMURIUM, Strain/Indicator: TA1537, Metabolic Activation: RAT, LIVER, S-9, AROCLOR 1254 (10%), Method: PREINCUBATION): inactive; negative
- mutagenic call (Test System: Ames Salmonella typhimurium, Strain/Indicator: TA98, Metabolic Activation: None, Method: Preincubation): inactive; negative
- mutagenic call (Test System: Ames Salmonella typhimurium, Strain/Indicator: TA98, Metabolic Activation: Rat, Liver, S-9, Phenobarbital and 5,6-benzoflavone, Method: Preincubation): inactive; negative
- mutagenic call (Test System: Ames Salmonella typhimurium, Strain/Indicator: TA100, Metabolic Activation: None, Method: Preincubation): inactive; negative
- mutagenic call (Test System: Ames Salmonella typhimurium, Strain/Indicator: TA100, Metabolic Activation: Rat, Liver, S-9, Phenobarbital and 5,6-benzoflavone, Method: Preincubation): inactive; negative
- mutagenic call (Test System: Ames Salmonella typhimurium, Strain/Indicator: TA1535, Metabolic Activation: None, Method: Preincubation): inactive; negative
- mutagenic call (Test System: Ames Salmonella typhimurium, Strain/Indicator: TA1535, Metabolic Activation: Rat, Liver, S-9, Phenobarbital and 5,6-benzoflavone, Method: Preincubation): inactive; negative
- mutagenic call (Test System: Ames Salmonella typhimurium, Strain/Indicator: TA1537, Metabolic Activation: None, Method: Preincubation): inactive; negative
- mutagenic call (Test System: Ames Salmonella typhimurium, Strain/Indicator: TA1537, Metabolic Activation: Rat, Liver, S-9, Phenobarbital and 5,6-benzoflavone, Method: Preincubation): inactive; negative
- mutagenic call (Test System: E. COLI, Strain/Indicator: WP2 UVRA, Metabolic Activation: HAMSTER, LIVER, S-9, AROCLOR 1254, Method: STANDARD PLATE): inactive; negative
- mutagenic call (Test System: E. COLI, Strain/Indicator: WP2 UVRA, Metabolic Activation: HAMSTER, LIVER, S-9, Method: STANDARD PLATE): inactive; negative
- mutagenic call (Test System: E. COLI, Strain/Indicator: WP2 UVRA, Metabolic Activation: MOUSE, LIVER, S-9, AROCLOR 1254, Method: STANDARD PLATE): inactive; negative
- mutagenic call (Test System: E. COLI, Strain/Indicator: WP2 UVRA, Metabolic Activation: MOUSE, LIVER, S-9, Method: STANDARD PLATE): inactive; negative
- mutagenic call (Test System: E. COLI, Strain/Indicator: WP2 UVRA, Metabolic Activation: NONE, Method: STANDARD PLATE): inactive; negative
- mutagenic call (Test System: E. COLI, Strain/Indicator: WP2 UVRA, Metabolic Activation: RAT, LIVER, S-9, AROCLOR 1254, Method: STANDARD PLATE): inactive; negative
- mutagenic call (Test System: E. COLI, Strain/Indicator: WP2 UVRA, Metabolic Activation: RAT, LIVER, S-9, Method: STANDARD PLATE): inactive; negative
- mutagenic call (Test System: E. coli, Strain/Indicator: WP2uvrA/pKM101, Metabolic Activation: None, Method: Preincubation): inactive; negative
- mutagenic call (Test System: E. coli, Strain/Indicator: WP2uvrA/pKM101, Metabolic Activation: Rat, Liver, S-9, Phenobarbital and 5,6-benzoflavone, Method: Preincubation): inactive; negative
- mutagenic call (Test System: MOUSE LYMPHOMA, Strain/Indicator: L5178Y (TK+/TK-), Metabolic Activation: NONE, Method: SUSPENSION/PLATE): inactive; negative
- mutagenic call (Test System: MOUSE LYMPHOMA, Strain/Indicator: L5178Y (TK+/TK-), Metabolic Activation: RAT, LIVER, S-9, AROCLOR 1254, Method: SUSPENSION/PLATE): active; positive

SMILES: CC(=O)Nc1nnc(-c2ccc([N+](=O)[O-])o2)s1
- mutagenic call (Test System: AMES SALMONELLA TYPHIMURIUM, Strain/Indicator: TA100, Metabolic Activation: RAT, LIVER, S-9, KC500 OR PHENOBARBITAL, Method: LIQUID SUSPENSION): active; positive

SMILES: Cc1occc(=O)c1[O-].Cc1occc(=O)c1[O-].Cc1occc(=O)c1[O-].[Cr+3]
- mutagenic call (Test System: AMES SALMONELLA TYPHIMURIUM, Strain/Indicator: TA92, Metabolic Activation: NONE, Method: STANDARD PLATE): inactive; negative
- mutagenic call (Test System: AMES SALMONELLA TYPHIMURIUM, Strain/Indicator: TA98, Metabolic Activation: NONE, Method: STANDARD PLATE): inactive; negative
- mutagenic call (Test System: AMES SALMONELLA TYPHIMURIUM, Strain/Indicator: TA100, Metabolic Activation: NONE, Method: STANDARD PLATE): inactive; negative
- mutagenic call (Test System: AMES SALMONELLA TYPHIMURIUM, Strain/Indicator: TA104, Metabolic Activation: NONE, Method: STANDARD PLATE): inactive; negative
